Measurements as given in patent US12485119B2, “Methods of treating pulmonary arterial hypertension” (ACTELION PHARMACEUTICALS LTD, priority 2019, dated 2025).

Legend:
[1] = system: newly diagnosed, treatment-naïve subjects with PAH
Source text: The following safety endpoints will be used: • Treatment-emergent AEs. • AEs leading to premature discontinuation of any of the 3 study treatments. • Treatment-emergent SAEs. • Treatment-emergent deaths. • Treatment-emergent marked laboratory abnormalities. • Change from baseline in laboratory variables. • Change from baseline in vital signs.
The safety endpoints will be analyzed for the following time periods: • From Day 1 until EOMOP. • From Day 1 until start of double-blind treatment (selexipag/placebo). • From start until discontinuation of macitentan study treatment (or until EOMOP, whichever is first)+30 days safety follow up. • From start until discontinuation of tadalafil study treatment (or until EOMOP, whichever is first)+30 days safety follow up. • From start until discontinuation of double-blind treatment (or until EOMOP, whichever is first)+30 days safety follow up. • From EOMOP until EOT plus 30 days safety follow-up. • The 30 days safety follow-up.

[2] = system: newly diagnosed, treatment-naïve subjects with PAH; assay: Exposure to study treatments, individual maintenance dose and maximum tolerated dose; format: in vivo, human; settings: up to EOMOP; Safety Set
Experimental: The starting dose of double-blind selexipag or placebo on Day 15±3 is 200 μg twice daily (in the morning and in the evening). The dose is up-titrated in increments of 200 μg twice daily, usually at weekly intervals (see Table 1), until either a maximum dose of 1600 μg twice daily is reached or adverse pharmacological effects that cannot be tolerated or medically managed are experienced, whichever is first. In the event of adverse effects typical of prostanoid therapy, it is recommended not to discontinue double-blind treatment because these effects are usually transient or manageable with symptomatic treatment. If a dose that cannot be tolerated is reached, the dose should be reduced to the previous dose level.

[3] = risk TEAEs (EU Uptravi RMP) up to EOMOP

For `CC(C)N(CCCCOCC(=O)NS(C)(=O)=O)c1cnc(-c2ccccc2)c(-c2ccccc2)n1` [Selexipag, 2-{4-[(5,6-diphenylpyrazin-2-yl)(propan-2-yl)amino]butoxy}-N-(methanesulfonyl)acetamide], the “Tolerability as part of the initial triple therapy regimen” value ([1]; in vivo) was “well-tolerated”, the “Bleeding events: PT Blood loss anaemia, %” value [1, 3] was “(0.8) %” and the “Bleeding events: PT Conjunctival haemorrhage, %” value [1, 3] was “(0.8) %”. For the same molecule, the “Bleeding events: PT Contusion, %” value [1, 3] was “(0.8) %”, the “Bleeding events: PT Epistaxis, %” value [1, 3] was “(9.2) %” and the “Bleeding events: PT Gastrointestinal haemorrhage, %” value [1, 3] was “(3.4) %”. For the same molecule, the “Bleeding events: PT Gastrointestinal polyp haemorrhage, %” value [1, 3] was “(0.8) %”, the “Bleeding events: PT Gingival bleeding, %” value [1, 3] was “(0.8) %” and the “Bleeding events: PT Haematochezia, %” value [1, 3] was “(0.8) %”. For the same molecule, the “Bleeding events: PT Haematoma, %” value [1, 3] was “(1.7) %”, the “Bleeding events: PT Haemoptysis, %” value [1, 3] was “(0.8) %” and the “Bleeding events: PT Haemorrhoidal haemorrhage, %” value [1, 3] was “(0.8) %”. The “Bleeding events: PT Hereditary haemorrhagic telangiectasia, %” value [1, 3] was “(0.8) %”, the “Bleeding events: PT Melaena, %” value [1, 3] was “(0.8) %” and the “Bleeding events: PT Menorrhagia, %” value [1, 3] was “(0.8) %”. For the same molecule, the “Bleeding events: PT Metrorrhagia, %” value [1, 3] was “(1.7) %”, the “Bleeding events: PT Upper gastrointestinal haemorrhage, %” value [1, 3] was “(1.7) %” and the “Bleeding events: PT Vaginal haemorrhage, %” value [1, 3] was “(0.8) %”. For the same molecule, the “Bleeding events: PT Vascular rupture, %” value [1, 3] was “(0.8) %”, the “GI intussusception risk: PT Small intestinal obstruction, %” value [1, 3] was “(0.8) %” and the “MACE: PT Transient ischaemic attack, %” value [1, 3] was “(0.8) %”. The “Medication errors: PT Accidental overdose, %” value [1, 3] was “(0.8) %”, the “Ophthalmological risk: PT Blindness, %” value [1, 3] was “(0.8) %” and the “Ophthalmological risk: PT Photopsia, %” value [1, 3] was “(0.8) %”. For the same molecule, the “Ophthalmological risk: PT Retinal vasculitis, %” value [1, 3] was “(0.8) %”, the “Ophthalmological risk: PT Vision blurred, %” value [1, 3] was “(1.7) %” and the “Ophthalmological risk: PT Vitreous floaters, %” value [1, 3] was “(0.8) %”. For the same molecule, the “PVOD/pulmonary oedema risk: PT Pulmonary oedema, %” value [1, 3] was “(0.8) %”, the “PVOD/pulmonary oedema risk: PT Pulmonary veno-occlusive disease, %” value [1, 3] was “(0.8) %” and the “Renal risk: PT Acute kidney injury, %” value [1, 3] was “(3.4) %”. The “Renal risk: PT Blood creatinine increased, %” value [1, 3] was “(2.5) %”, the “Renal risk: PT Glomerular filtration rate decreased, %” value [1, 3] was “(0.8) %” and the “Renal risk: PT Prerenal failure, %” value [1, 3] was “(0.8) %”. For the same molecule, the “Renal risk: PT Renal failure, %” value [1, 3] was “(0.8) %”, the “Renal risk: PT Renal impairment, %” value [1, 3] was “(0.8) %” and the “Risk Anaemia (all PTs), %” value [1, 3] was “(25.2) %”. The “Risk Anaemia: PT Anaemia, %” value [1, 3] was “(12.6) %”, the “Risk Anaemia: PT Blood loss anaemia, %” value [1, 3] was “(0.8) %” and the “Risk Anaemia: PT Haematocrit decreased, %” value [1, 3] was “(0.8) %”. The “Risk Anaemia: PT Haemoglobin decreased, %” value [1, 3] was “(6.7) %”, the “Risk Anaemia: PT Iron deficiency anaemia, %” value [1, 3] was “(6.7) %” and the “Risk Anaemia: PT Microcytic anaemia, %” value [1, 3] was “(1.7) %”. The “Risk Anaemia: PT Red blood cell count decreased, %” value [1, 3] was “(0.8) %”, the “Risk Bleeding events (all PTs), %” value [1, 3] was “(21.8) %” and the “Risk Gastrointestinal disturbances denoting intestinal intussusception (manifested as ileus or obstruction), %” value [1, 3] was “(0.8) %”. For the same molecule, the “Risk Hypotension (all PTs), %” value [1, 3] was “(8.4) %”, the “Risk Hypotension: PT Hypotension, %” value [1, 3] was “(7.6) %” and the “Risk Hypotension: PT Orthostatic hypotension, %” value [1, 3] was “(0.8) %”. The “Risk Light-dependent non-melanoma skin malignancies (all PTs), %” value [1, 3] was “(0.8) %”, the “Risk Major adverse cardiovascular events (MACE) (all PTs), %” value [1, 3] was “(0.8) %” and the “Risk Medication errors (all PTs), %” value [1, 3] was “(0.8) %”. The “Risk Ophthalmological effects associated to retinal vascular system (all PTs), %” value [1, 3] was “(4.2) %”, the “Risk Pulmonary venoocclusive disease associated with pulmonary oedema (all PTs), %” value [1, 3] was “(1.7) %” and the “Risk Renal function impairment/acute renal failure (all PTs), %” value [1, 3] was “(8.4) %”. For the same molecule, the “Skin malignancies risk: PT Basal cell carcinoma, %” value [1, 3] was “(0.8) %”, the “Subjects with At Least One Identified or Potential Risk AE, %” value [1, 3] was “(49.6) %” and the “Maximum tolerated dose of double-blind treatment (b.i.d), Median” value [2] was 1000.0 µg.
